According to ChEMBL document CHEMBL5244269, “Improving metabolic stability and removing aldehyde oxidase liability in a 5-azaquinazoline series of IRAK4 inhibitors” (Bioorg Med Chem, 2020):

Key:
Type in all cases: functional
[1] = system: OCI-Ly10; experiment: Growth inhibition of human OCILY10 cells at 0.17 uM incubated for 3 days in presence of 0.003 uM acalabrutinib relative to control; details: OCI-Ly10, 72 h, time 3 day, read-out: GI
[2] = system: SUD4; experiment: Growth inhibition of human SU-DHL-4 cells at 0.33 uM incubated for 3 days in presence of 0.17 uM acalabrutinib relative to control; details: SU-DHL-4, 72 h, time 3 day, read-out: GI
[3] = system: SUD4; experiment: Growth inhibition of human SU-DHL-4 cells at 10 uM incubated for 3 days in presence of 0.017 uM acalabrutinib relative to control; details: SU-DHL-4, 72 h, time 3 day, read-out: GI
[4] = system: OCI-Ly10; experiment: Growth inhibition of human OCILY10 cells at 10 uM incubated for 3 days in presence of 0.003 uM acalabrutinib relative to control; details: OCI-Ly10, 72 h, time 3 day, read-out: GI
[5] = system: SUD4; experiment: Growth inhibition of human SU-DHL-4 cells at 3.3 uM incubated for 3 days in presence of 0.17 uM acalabrutinib relative to control; details: SU-DHL-4, 72 h, time 3 day, read-out: GI
[6] = system: OCI-Ly10; experiment: Growth inhibition of human OCILY10 cells at 10 uM incubated for 3 days in presence of 0.33 uM acalabrutinib relative to control; details: OCI-Ly10, 72 h, time 3 day, read-out: GI
[7] = system: OCI-Ly10; experiment: Growth inhibition of human OCILY10 cells at 0.17 uM incubated for 3 days in presence of 0.017 uM acalabrutinib relative to control; details: OCI-Ly10, 72 h, time 3 day, read-out: GI
[8] = system: OCI-Ly10; experiment: Growth inhibition of human OCILY10 cells at 0.17 uM incubated for 3 days in presence of 0.33 uM acalabrutinib relative to control; details: OCI-Ly10, 72 h, time 3 day, read-out: GI
[9] = system: SUD4; experiment: Growth inhibition of human SU-DHL-4 cells at 10 uM incubated for 3 days in presence of 0.33 uM acalabrutinib relative to control; details: SU-DHL-4, 72 h, time 3 day, read-out: GI
[10] = system: SUD4; experiment: Growth inhibition of human SU-DHL-4 cells at 0.17 uM incubated for 3 days in presence of 0.17 uM acalabrutinib relative to control; details: SU-DHL-4, 72 h, time 3 day, read-out: GI
[11] = system: SUD4; experiment: Growth inhibition of human SU-DHL-4 cells at 0.17 uM incubated for 3 days in presence of 0.33 uM acalabrutinib relative to control; details: SU-DHL-4, 72 h, time 3 day, read-out: GI
[12] = system: OCI-Ly10; experiment: Growth inhibition of human OCILY10 cells at 0.33 uM incubated for 3 days in presence of 0.033 uM acalabrutinib relative to control; details: OCI-Ly10, 72 h, time 3 day, read-out: GI
[13] = system: OCI-Ly10; experiment: Growth inhibition of human OCILY10 cells at 1.7 uM incubated for 3 days in presence of 0.33 uM acalabrutinib relative to control; details: OCI-Ly10, 72 h, time 3 day, read-out: GI
[14] = system: SUD4; experiment: Growth inhibition of human SU-DHL-4 cells at 3.3 uM incubated for 3 days in presence of 0.033 uM acalabrutinib relative to control; details: SU-DHL-4, 72 h, time 3 day, read-out: GI
[15] = system: SUD4; experiment: Growth inhibition of human SU-DHL-4 cells at 0.33 uM incubated for 3 days in presence of 0.003 uM acalabrutinib relative to control; details: SU-DHL-4, 72 h, time 3 day, read-out: GI
[16] = system: OCI-Ly10; experiment: Growth inhibition of human OCILY10 cells at 10 uM incubated for 3 days in presence of 0.017 uM acalabrutinib relative to control; details: OCI-Ly10, 72 h, time 3 day, read-out: GI
[17] = system: SUD4; experiment: Growth inhibition of human SU-DHL-4 cells at 3.3 uM incubated for 3 days in presence of 0.017 uM acalabrutinib relative to control; details: SU-DHL-4, 72 h, time 3 day, read-out: GI
[18] = system: OCI-Ly10; experiment: Growth inhibition of human OCILY10 cells at 1.7 uM incubated for 3 days in presence of 0.017 uM acalabrutinib relative to control; details: OCI-Ly10, 72 h, time 3 day, read-out: GI
[19] = system: SUD4; experiment: Growth inhibition of human SU-DHL-4 cells at 0.17 uM incubated for 3 days in presence of 0.033 uM acalabrutinib relative to control; details: SU-DHL-4, 72 h, time 3 day, read-out: GI
[20] = system: OCI-Ly10; experiment: Growth inhibition of human OCILY10 cells at 3.3 uM incubated for 3 days in presence of 0.003 uM acalabrutinib relative to control; details: OCI-Ly10, 72 h, time 3 day, read-out: GI
[21] = system: OCI-Ly10; experiment: Growth inhibition of human OCILY10 cells at 1.7 uM incubated for 3 days in presence of 0.003 uM acalabrutinib relative to control; details: OCI-Ly10, 72 h, time 3 day, read-out: GI
[22] = system: OCI-Ly10; experiment: Growth inhibition of human OCILY10 cells at 0.17 uM incubated for 3 days in presence of 0.033 uM acalabrutinib relative to control; details: OCI-Ly10, 72 h, time 3 day, read-out: GI
[23] = system: SUD4; experiment: Growth inhibition of human SU-DHL-4 cells at 0.33 uM incubated for 3 days in presence of 0.017 uM acalabrutinib relative to control; details: SU-DHL-4, 72 h, time 3 day, read-out: GI
[24] = system: SUD4; experiment: Growth inhibition of human SU-DHL-4 cells at 10 uM incubated for 3 days in presence of 0.003 uM acalabrutinib relative to control; details: SU-DHL-4, 72 h, time 3 day, read-out: GI
[25] = system: SUD4; experiment: Growth inhibition of human SU-DHL-4 cells at 10 uM incubated for 3 days in presence of 0.033 uM acalabrutinib relative to control; details: SU-DHL-4, 72 h, time 3 day, read-out: GI
[26] = system: OCI-Ly10; experiment: Growth inhibition of human OCILY10 cells at 3.3 uM incubated for 3 days in presence of 0.017 uM acalabrutinib relative to control; details: OCI-Ly10, 72 h, time 3 day, read-out: GI
[27] = system: OCI-Ly10; experiment: Growth inhibition of human OCILY10 cells at 0.17 uM incubated for 3 days in presence of 0.17 uM acalabrutinib relative to control; details: OCI-Ly10, 72 h, time 3 day, read-out: GI
[28] = system: SUD4; experiment: Growth inhibition of human SU-DHL-4 cells at 10 uM incubated for 3 days in presence of 0.17 uM acalabrutinib relative to control; details: SU-DHL-4, 72 h, time 3 day, read-out: GI
[29] = system: SUD4; experiment: Growth inhibition of human SU-DHL-4 cells at 1.7 uM incubated for 3 days in presence of 0.003 uM acalabrutinib relative to control; details: SU-DHL-4, 72 h, time 3 day, read-out: GI
[30] = system: SUD4; experiment: Growth inhibition of human SU-DHL-4 cells at 1.7 uM incubated for 3 days in presence of 0.33 uM acalabrutinib relative to control; details: SU-DHL-4, 72 h, time 3 day, read-out: GI
[31] = system: SUD4; experiment: Growth inhibition of human SU-DHL-4 cells at 0.33 uM incubated for 3 days in presence of 0.033 uM acalabrutinib relative to control; details: SU-DHL-4, 72 h, time 3 day, read-out: GI
[32] = system: OCI-Ly10; experiment: Growth inhibition of human OCILY10 cells at 10 uM incubated for 3 days in presence of 0.17 uM acalabrutinib relative to control; details: OCI-Ly10, 72 h, time 3 day, read-out: GI
[33] = system: OCI-Ly10; experiment: Growth inhibition of human OCILY10 cells at 1.7 uM incubated for 3 days in presence of 0.033 uM acalabrutinib relative to control; details: OCI-Ly10, 72 h, time 3 day, read-out: GI
[34] = system: SUD4; experiment: Growth inhibition of human SU-DHL-4 cells at 0.33 uM incubated for 3 days in presence of 0.33 uM acalabrutinib relative to control; details: SU-DHL-4, 72 h, time 3 day, read-out: GI
[35] = system: OCI-Ly10; experiment: Growth inhibition of human OCILY10 cells at 3.3 uM incubated for 3 days in presence of 0.33 uM acalabrutinib relative to control; details: OCI-Ly10, 72 h, time 3 day, read-out: GI
[36] = system: OCI-Ly10; experiment: Growth inhibition of human OCILY10 cells at 3.3 uM incubated for 3 days in presence of 0.17 uM acalabrutinib relative to control; details: OCI-Ly10, 72 h, time 3 day, read-out: GI
[37] = system: SUD4; experiment: Growth inhibition of human SU-DHL-4 cells at 1.7 uM incubated for 3 days in presence of 0.017 uM acalabrutinib relative to control; details: SU-DHL-4, 72 h, time 3 day, read-out: GI
[38] = system: OCI-Ly10; experiment: Growth inhibition of human OCILY10 cells at 0.33 uM incubated for 3 days in presence of 0.003 uM acalabrutinib relative to control; details: OCI-Ly10, 72 h, time 3 day, read-out: GI
[39] = system: OCI-Ly10; experiment: Growth inhibition of human OCILY10 cells at 3.3 uM incubated for 3 days in presence of 0.033 uM acalabrutinib relative to control; details: OCI-Ly10, 72 h, time 3 day, read-out: GI
[40] = system: SUD4; experiment: Growth inhibition of human SU-DHL-4 cells at 1.7 uM incubated for 3 days in presence of 0.17 uM acalabrutinib relative to control; details: SU-DHL-4, 72 h, time 3 day, read-out: GI
[41] = system: SUD4; experiment: Growth inhibition of human SU-DHL-4 cells at 3.3 uM incubated for 3 days in presence of 0.003 uM acalabrutinib relative to control; details: SU-DHL-4, 72 h, time 3 day, read-out: GI

SMILES: Cc1ncc(-c2nc3c(NC(C)C)nc(Nc4cnn(C5CC6(C5)CN(C)C6)c4)nc3cc2F)cn1
- inhibition of growth at 0.17 µM [1]: 29%
- inhibition of growth at 0.33 µM [2]: 4%
- inhibition of growth at 10 µM [3]: 7%
- inhibition of growth at 10 µM [4]: 196%
- inhibition of growth at 3.3 µM [5]: 4%
- inhibition of growth at 10 µM [6]: 198%
- inhibition of growth at 0.17 µM [7]: 97%
- inhibition of growth at 0.17 µM [8]: 173%
- inhibition of growth at 10 µM [9]: 10%
- inhibition of growth at 0.17 µM [10]: 3%
- inhibition of growth at 0.17 µM [11]: 6%
- inhibition of growth at 0.33 µM [12]: 177%
- inhibition of growth at 1.7 µM [13]: 195%
- inhibition of growth at 3.3 µM [14]: 4%
- inhibition of growth at 0.33 µM [15]: 3%
- inhibition of growth at 10 µM [16]: 197%
- inhibition of growth at 3.3 µM [17]: 4%
- inhibition of growth at 1.7 µM [18]: 196%
- inhibition of growth at 0.17 µM [19]: 2%
- inhibition of growth at 3.3 µM [20]: 189%
- inhibition of growth at 1.7 µM [21]: 170%
- inhibition of growth at 0.17 µM [22]: 137%
- inhibition of growth at 0.33 µM [23]: 3%
- inhibition of growth at 10 µM [24]: 7%
- inhibition of growth at 10 µM [25]: 6%
- inhibition of growth at 3.3 µM [26]: 196%
- inhibition of growth at 0.17 µM [27]: 172%
- inhibition of growth at 10 µM [28]: 7%
- inhibition of growth at 1.7 µM [29]: 3%
- inhibition of growth at 1.7 µM [30]: 6%
- inhibition of growth at 0.33 µM [31]: 3%
- inhibition of growth at 10 µM [32]: 199%
- inhibition of growth at 1.7 µM [33]: 196%
- inhibition of growth at 0.33 µM [34]: 6%
- inhibition of growth at 3.3 µM [35]: 195%
- inhibition of growth at 3.3 µM [36]: 196%
- inhibition of growth at 1.7 µM [37]: 3%
- inhibition of growth at 0.33 µM [38]: 51%
- inhibition of growth at 3.3 µM [39]: 196%
- inhibition of growth at 1.7 µM [40]: 3%
- inhibition of growth at 3.3 µM [41]: 4%
